Read-outs that look alike come from different tables or passages of the source.
Target: T1, mAChR M1 (UniProt P11229)
T1 sequence (P11229 1-460): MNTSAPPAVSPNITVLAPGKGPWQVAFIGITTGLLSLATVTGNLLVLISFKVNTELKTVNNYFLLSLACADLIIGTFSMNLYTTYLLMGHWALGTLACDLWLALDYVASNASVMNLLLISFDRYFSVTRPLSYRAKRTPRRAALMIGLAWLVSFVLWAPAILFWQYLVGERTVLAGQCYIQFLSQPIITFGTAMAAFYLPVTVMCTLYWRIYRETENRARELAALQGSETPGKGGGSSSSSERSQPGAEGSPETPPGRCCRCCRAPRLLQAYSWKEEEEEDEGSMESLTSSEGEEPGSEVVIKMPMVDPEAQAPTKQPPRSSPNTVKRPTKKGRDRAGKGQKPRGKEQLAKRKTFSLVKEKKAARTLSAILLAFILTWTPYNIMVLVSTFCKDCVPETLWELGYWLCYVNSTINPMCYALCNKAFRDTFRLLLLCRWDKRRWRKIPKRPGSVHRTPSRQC
Experiment: mAChR M1 cell-based functional assay (calcium mobilization, potentiation of EC20 acetylcholine response)
Details: for EC50: CHO-K1 cells expressing mAChR M1, increase in EC20 acetylcholine response, >10 μM estimated where no plateau in the curve
Method: Chinese hamster ovary (CHO-K1) cells stably expressing rat (r)M1 were purchased from the American Type Culture Collection and cultured according to their indicated protocol. […] To make stable rM2, hM2, rM3, hM4, and rM4 cell lines for use in calcium mobilization assays, these cells also were stably transfected with a chimeric G-protein (Gqi5) (provided by B. R. Conklin, University of California, San Francisco) using Lipofectamine 2000. rM1, hM1, rM3, hM3, rM5, and hM5 cells were grown in Ham's F-12 medium containing 10% heat-inactivated fetal bovine serum (FBS), 20 mM HEPES, and 50 μg/mL G418 sulfate. rM2-Gqi5, hM2-Gqi5, and hM4-Gqi5 cells were grown in the same medium also containing 500 μg/mL Hygromycin B. Stable rM4-Gqi5 cells were grown in DMEM containing 10% heat-inactivated FBS, 20 mM HEPES, 400 μg/mL G418 sulfate, and 500 μg/mL Hygromycin B.
For high throughput measurement of agonist-evoked increases in intracellular calcium, CHO-K1 cells stably expressing muscarinic receptors were plated in growth medium lacking G418 and hygromycin at 15,000 cells/20 μL/well in Greiner 384-well black-walled, tissue culture (TC)-treated, clear-bottom plates (VWR). Cells were incubated overnight at 37° C. and 5% CO2. […] Compound master plates were formatted in an 11 point CRC format (1:3 dilutions) in 100% DMSO with a starting concentration of 10 mM using the BRAVO liquid handler (Agilent). Test compound CRCs were then transferred to daughter plates ([…]) using the Echo acoustic plate reformatter (Labcyte, Sunnyvale, Calif.) and then diluted into assay buffer (40 μL) to a 2× stock using a Thermo Fisher Combi (Thermo Fisher Scientific, Waltham, Mass.).
Calcium flux was measured using the Functional Drug Screening System (FDSS) 6000 (Hamamatsu Corporation, Tokyo, Japan) as an increase in the fluorescent static ratio. Compounds were applied to cells (20 μL, 2×) using the automated system of the FDSS 6000 at 4 s into the 300 s protocol and the data were collected at 1 Hz. […] Agonist activity was analyzed as a concentration-dependent increase in calcium mobilization upon compound addition. Positive allosteric modulator activity was analyzed as a concentration-dependent increase in the EC20 acetylcholine response. Antagonist activity was analyzed as a concentration-dependent decrease in the EC80 acetylcholine response. Concentration-response curves were generated using a four-parameter logistical equation in XLfit curve fitting software (IDBS, Bridgewater, N.J.) for Excel (Microsoft, Redmond, Wash.) or Prism (GraphPad Software, Inc., San Diego, Calif.).
The calcium mobilization assay was also used to determine “efficacy”. In the context of the assays carried out for the data in Table II, “efficacy” (% ACh at 30 μM) is defined as the maximal response in the calcium flux as determined by the sigmoidal curve fit of the concentration response curve, or in the absence of an acceptable curve fit, the response recorded at 30 μM test compound, stated as a percentage of the response elicited by a concentration of Ach that induces approximately 80% of a maximal (i.e. saturating) ACh response.
Substituted benzylspiroindolin-2-one analogs were synthesized as described above. Activity (EC50 and Emax) was determined in the mAChR M1 cell-based functional assay as described above and the data are shown in Table III. The compound number corresponds to the compound numbers used in Tables I and II.

Row | Emax (% ACh maximum at 30 μM) [%] | EC50 [µM] | Emax [%] | SMILES
1 | 52 | 2.4 |  | Cn1cc(-c2ccc(CN3C(=O)C4(CCN(C5CCCC5)C4)c4ccccc43)c(F)c2F)cn1 (stereo not drawn) [Compound B12]
2 | 57 | 3.9 |  | Cn1cc(-c2ccc(CN3C(=O)C4(CCN(C5CCCOC5)C4)c4ccccc43)c(F)c2)cn1 (single isomer, unassigned) [Compound B35]
3 | 39 | > 10 |  | CC1CCCCC1N1CCC2(C1)C(=O)N(Cc1ccc(-c3cnn(C)c3)cc1F)c1ccccc12 (stereo not drawn) [Compound B60]
4 | 66 | 5.4 |  | CN1CCC2(C1)C(=O)N(Cc1c(F)cc(-c3cccc4nn(C)cc34)cc1F)c1ccccc12 (stereo not drawn) [Compound B75]
5 |  | 3.4 | 53 | Cn1cc(-c2ccc(CN3C(=O)C4(CCN(CC(F)F)C4)c4ccccc43)c(F)c2)cn1 (stereo not drawn) [Compound B26, 1′-(2,2-difluoroethyl)-1-(2-fluoro-4-(1-methyl-1H-pyrazol-4-yl)benzyl)spiro[indoline-3,3′-pyrrolidin]-2-one]
6 | 57 | 3.7 |  | Cn1cc(-c2ccc(CN3C(=O)C4(CCN(C5COC5)C4)c4ccccc43)c(F)c2)cn1 (stereo not drawn) [Compound B28]
7 | 65 | 3.2 |  | CCN1CCC2(C1)C(=O)N(Cc1ccc(-c3cnn(C)c3)cc1F)c1ccccc12 (stereo not drawn) [Compound B24]
8 | 67 | 3 |  | Cn1cc(-c2ccc(CN3C(=O)C4(CCN(C5CCCCC5F)C4)c4ccccc43)c(F)c2)cn1 (stereo not drawn) [Compound B20]
9 | 51 | 7 |  | CC1CCCC1N1CCC2(C1)C(=O)N(Cc1ccc(-c3cnn(C)c3)cc1F)c1ccccc12 (stereo not drawn) [Compound B54]
10 | 56 | 4.9 |  | Cn1cc(-c2ccc(CN3C(=O)C4(CCN(C(=O)C5CC5)C4)c4ccccc43)c(F)c2)cn1 (stereo not drawn) [Compound B41]
11 | 43 | 1.3 |  | Cn1cc(-c2ccc(CN3C(=O)C4(CCN(C5CCCC5)C4)c4ccccc43)cc2)cn1 (stereo not drawn) [Compound B1]
12 | 58 | 2.7 |  | Cn1cc(-c2ccc(CN3C(=O)C4(CCN(C5CCSCC5)C4)c4ccccc43)c(F)c2)cn1 (stereo not drawn) [Compound B15]
13 | 58 | 6 |  | Cn1cc(-c2ccc(CN3C(=O)C4(CCN(C5CNC5)C4)c4ccccc43)c(F)c2)cn1 (stereo not drawn) [Compound B50]
14 | 38 | 5.8 |  | Cn1cc(-c2ccc(CN3C(=O)C4(CCN(C(=O)c5ccccc5)C4)c4ccccc43)c(F)c2)cn1 (single isomer, unassigned) [Compound B47]
15 | 46 | 2.7 |  | CN1CCC2(C1)C(=O)N(Cc1ccc(-c3cnn(C)c3)cc1F)c1ccccc12 (single isomer, unassigned) [Compound B16, 1-(2-fluoro-4-(1-methyl-1H-pyrazol-4-yl)benzyl)-1′-methylspiro[indoline-3,3′-pyrrolidin]-2-one]
16 | 54 | 3.3 |  | Cn1cc(-c2ccc(CN3C(=O)C4(CCN(C5CCOC5)C4)c4ccccc43)c(F)c2)cn1 (stereo not drawn) [Compound B25]

Row | Emax (% ACh maximum at 30 μM) [%] | EC50 [µM] | Emax [%] | SMILES
17 | 49 | 5 |  | CC(C)N1CCC(N2CCC3(C2)C(=O)N(Cc2ccc(-c4cnn(C)c4)cc2F)c2ccccc23)CC1 (stereo not drawn) [Compound B44]
18 | 53 | > 10 |  | Cn1cc(-c2ccc(CN3C(=O)C4(CCN(C5CCC(F)(F)CC5)C4)c4ccccc43)c(F)c2)cn1 (stereo not drawn) [Compound B59]
19 |  | 3.2 | 63 | Cn1cc(-c2ccc(CN3C(=O)C4(CCN(CCF)C4)c4ccccc43)c(F)c2)cn1 (stereo not drawn) [Compound B23]
20 | 41 | 3.8 |  | CCCn1cc(-c2ccc(CN3C(=O)C4(CCN(C5CCCC5)C4)c4ccccc43)c(F)c2)cn1 (stereo not drawn) [Compound B32]
21 | 54 | > 10 |  | Cn1cc(-c2ccc(CN3C(=O)C4(CCN(C(=O)C5CCCCC5)C4)c4ccccc43)c(F)c2)cn1 (stereo not drawn) [Compound B62]
22 | 63 | 1.9 |  | Cn1cc(-c2ccc(CN3C(=O)C4(CCN(c5ncccn5)C4)c4ccccc43)c(F)c2)cn1 (stereo not drawn) [Compound B7, 1-(2-fluoro-4-(1-methyl-1H-pyrazol-4-yl)benzyl)-1′-(pyrimidin-2-yl)spiro[indoline-3,3′-pyrrolidin]-2-one]
23 | 50 | 6.2 |  | Cn1cc(-c2ccc(CN3C(=O)C4(CCN(C(=O)C5CCC5)C4)c4ccccc43)c(F)c2)cn1 (stereo not drawn) [Compound B51]
24 | 73 | 1.5 |  | Cn1cc(-c2ccc(CN3C(=O)C4(CCN(C5CCCCC5)C4)c4ccccc43)c(F)c2)cn1 (single isomer, unassigned) [Compound B2]
25 | <30 | > 10 |  | CN1CCCC12C(=O)N(Cc1c(F)cc(-c3cccc4nn(C)cc34)cc1F)c1ccccc12 (stereo not drawn) [Compound B80]
26 | 66 | 1.8 |  | Cn1cc(-c2ccc(CN3C(=O)C4(CCN(C5CCCCC5)C4)c4ccccc43)c(F)c2)cn1 (stereo not drawn) [Compound B5]
27 | <20 | > 10 |  | Cn1cc(-c2ccc(CN3C(=O)C4(CCN(CC5CCCCC5)C4)c4ccccc43)c(F)c2)cn1 (single isomer, unassigned) [Compound B73]
28 | 51 | 3 |  | Cn1cc(-c2ccc(CN3C(=O)C4(CCN(C5CCCCCC5)C4)c4ccccc43)c(F)c2)cn1 (stereo not drawn) [Compound B21]
29 | 60 | 2.4 |  | Cn1cc(-c2ccc(CN3C(=O)C4(CCN(CC5CC5)C4)c4ccccc43)c(F)c2)cn1 (stereo not drawn) [Compound B11]
30 | 36 | > 10 |  | Cn1cc(-c2ccc(CN3C(=O)C4(CCN(Cc5ccccc5)C4)c4ccccc43)c(F)c2)cn1 (stereo not drawn) [Compound B57]
31 | 69 | 7.2 |  | Cn1cc2c(-c3cc(F)c(CN4C(=O)C5(CCNC5)c5ccccc54)c(F)c3)cccc2n1 (stereo not drawn) [Compound B74]
32 | 44 | > 10 |  | Cn1cc(-c2ccc(CN3C(=O)C4(CCN(C5CCCOC5)C4)c4ccccc43)c(F)c2)cn1 (single isomer, unassigned) [Compound B67]

Row | SMILES | Emax (% ACh maximum at 30 μM) [%] | EC50 [µM] | Emax [%]
33 | CN1CCC2(CC1)C(=O)N(Cc1c(F)cc(-c3ccc4nn(C)cc4c3)cc1F)c1ccccc12 [Compound B77] | 26 | > 10 | 
34 | Cn1cc(-c2ccc(CN3C(=O)C4(CCN(C5CCCSC5)CC4)c4ccccc43)c(F)c2)cn1 (stereo not drawn) [Compound B29] | 42 | 3.7 | 
35 | CN1CCC(N2CCC3(CC2)C(=O)N(Cc2ccc(-c4cnn(C)c4)cc2F)c2ccccc23)CC1 [Compound B48] | 51 | 5.9 | 
36 | CN1CCCC(N2CCC3(CC2)C(=O)N(Cc2ccc(-c4cnn(C)c4)cc2F)c2ccccc23)C1 (stereo not drawn) [Compound B53] | 57 | 6.7 | 
37 | Cn1cc(-c2ccc(CN3C(=O)C4(CCN(C5CCC5)CC4)c4ccccc43)c(F)c2)cn1 [Compound B66] | 32 | > 10 | 
38 | Cn1cc(-c2ccc(CN3C(=O)C4(CCN(C5CCOC5)CC4)c4ccccc43)c(F)c2)cn1 (stereo not drawn) [Compound B71] | 36 | > 10 | 
39 | Cn1cc(-c2ccc(CN3C(=O)C4(CCN(C5CCSC5)CC4)c4ccccc43)c(F)c2)cn1 (stereo not drawn) [Compound B42] | 51 | 4.9 | 

From patent US9073935B2, “Substituted benzylspiroindolin-2-one analogs as positive allosteric modulators of the muscarinic acetylcholine receptor M1” (VANDERBILT UNIVERSITY, priority 2011, dated 2015)
